Assay results reported in patent US20020082224A1, “NON-IMMUNOGENIC PRODRUGS AND SELECTABLE MARKERS FOR USE IN GENE THERAPY” (priority 1997, published 2002).

Legend:
[1] = test system: HT/hPLAP cells (HT1080 cells stably expressing hPLAP); assay: Tumor growth in nude mice inoculated with HT/hPLAP cells, dosed with EP; type: in vivo, nude mice (Balb/c)
Description: (§1) hPLAP is able to convert the prodrugs, mitomycin phosphate (MOP) and etoposide phosphate (EP), into an active mitomycin C derivative, mitomycin alcohol, and etoposide. 5e5 HT1080 cells or HT/hPLAP cells (HT1080 cells stably expressing hPLAP) are inoculated subcutaneously into nude mice (Balb/c). Tumor development occurs in 7-14 days. Etoposide phosphate is prepared by the method of […] et al., Cancer Res. 49:5789-92, 1988, or obtained from a pharmacy (e.g., manufactured by Bristol-Myers Squibb). Animals are dosed with EP as described ([…] et al., 1988) 2-10 days after inoculation with cells.

HT1080 cells = assay: Tumor growth in nude mice inoculated with parental HT1080 cells, dosed with EP; type: in vivo, nude mice (Balb/c); conditions: s.c. inoculation of 5e5 cells, EP dosed 2-10 days after inoculation
Description: as §1

[2] = cited from earlier work
[3] = test system: acute myeloblastic leukemia (AML); conditions: as a single agent; % of patients; cited from earlier work

Compound	specificity of EP effect, HT1080 cells in one flank and HT/hPLAP cells in the contralateral flank ([1]; both cell types in the same animal)	effect on tumor growth of HT/hPLAP cells ([1]; s.c. inoculation of 5e5 cells, EP dosed 2-10 days after inoculation)	effect on tumors from parental HT1080 cells (HT1080 cells)	concentrations in the CSF relative to plasma ([2]; IV infusion, after 2 hours of continuous infusion) [%]	Plasma half life ([2]; due to rapid deamination)	remission induced in patients with acute myeloblastic leukemia (AML) [3] [%]
COc1cc([C@@H]2c3cc4c(cc3[C@@H](O[C@@H]3O[C@@H]5CO[C@@H](C)O[C@H]5[C@H](O)[C@H]3O)[C@H]3COC(=O)[C@H]23)OCO4)cc(OC)c1OP(=O)(O)O [EP, etoposide phosphate]	specific for cells expressing HPLAP	dose-dependent reduction in tumor growth	resistant to the effect of EP			
Nc1ccn([C@@H]2O[C@H](CO)[C@@H](O)[C@@H]2O)c(=O)n1 [ara-C, cytosine arabinoside]				50	less than 20 minutes	50
